Data reported in ChEMBL document CHEMBL1909046, “DrugMatrix in vitro pharmacology data”.

How the values were obtained:
[1] = DRUGMATRIX: Atrial Natriuretic Factor (ANF) radioligand binding (ligand: [125I] ANF (rat)); assay type: cell membranes, Cavia porcellus, Dunkin-Hartley, Adrenal gland, Membrane; conditions: Not Active = under 50% inhibition at 10 µM
[2] = DRUGMATRIX: Serotonin (5-Hydroxytryptamine) 5-HT3 radioligand binding (ligand: [3H] GR-65630); assay type: cell membranes, Membrane; conditions: hek293; Not Active = under 50% inhibition at 10 µM
[3] = biological target: T1, C-X-C chemokine receptor type 2 (Homo sapiens, UniProt P25025); assay type: cell membranes, Membrane; conditions: cho-k1; further: in other assays of this panel Not Active means under 50% inhibition at 10 µM
T1 sequence (P25025 whole entry): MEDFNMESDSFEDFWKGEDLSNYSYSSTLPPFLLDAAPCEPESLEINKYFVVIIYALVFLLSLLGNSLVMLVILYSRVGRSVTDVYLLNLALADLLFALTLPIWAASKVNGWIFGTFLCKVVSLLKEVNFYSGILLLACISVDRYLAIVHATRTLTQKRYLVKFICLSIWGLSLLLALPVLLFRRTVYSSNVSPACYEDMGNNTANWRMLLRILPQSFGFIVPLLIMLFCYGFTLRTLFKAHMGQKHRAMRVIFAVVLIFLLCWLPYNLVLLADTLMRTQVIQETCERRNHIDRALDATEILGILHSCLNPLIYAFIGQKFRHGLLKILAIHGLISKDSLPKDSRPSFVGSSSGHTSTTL

[4] = DRUGMATRIX: GABAA, Chloride Channel, TBOB radioligand binding (ligand: [3H] TBOB); assay type: cell membranes, Rattus norvegicus, Wistar, Cerebral cortex, Membrane; conditions: Not Active = under 50% inhibition at 10 µM
Melanocortin receptor 3 = Melanocortin receptor 3 (Homo sapiens, UniProt P41968); assay type: cell membranes, Membrane; conditions: hek293; further: in other assays of this panel Not Active means under 50% inhibition at 10 µM
Chain of Melanocortin receptor 3 (P41968 whole entry): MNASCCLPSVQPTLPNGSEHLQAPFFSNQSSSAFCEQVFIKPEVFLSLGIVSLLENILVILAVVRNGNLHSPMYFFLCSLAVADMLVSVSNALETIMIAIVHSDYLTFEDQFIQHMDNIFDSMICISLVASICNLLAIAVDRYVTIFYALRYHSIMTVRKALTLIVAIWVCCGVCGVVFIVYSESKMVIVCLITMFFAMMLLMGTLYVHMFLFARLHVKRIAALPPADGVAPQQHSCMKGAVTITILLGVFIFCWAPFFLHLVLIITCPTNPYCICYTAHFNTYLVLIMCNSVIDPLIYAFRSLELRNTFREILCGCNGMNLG

[5] = biological target: Delta-type opioid receptor (Homo sapiens, UniProt P41143); assay type: cell membranes, HEK293, Membrane; conditions: hek293; further: in other assays of this panel Not Active means under 50% inhibition at 10 µM
Chain of Delta-type opioid receptor (P41143 whole entry): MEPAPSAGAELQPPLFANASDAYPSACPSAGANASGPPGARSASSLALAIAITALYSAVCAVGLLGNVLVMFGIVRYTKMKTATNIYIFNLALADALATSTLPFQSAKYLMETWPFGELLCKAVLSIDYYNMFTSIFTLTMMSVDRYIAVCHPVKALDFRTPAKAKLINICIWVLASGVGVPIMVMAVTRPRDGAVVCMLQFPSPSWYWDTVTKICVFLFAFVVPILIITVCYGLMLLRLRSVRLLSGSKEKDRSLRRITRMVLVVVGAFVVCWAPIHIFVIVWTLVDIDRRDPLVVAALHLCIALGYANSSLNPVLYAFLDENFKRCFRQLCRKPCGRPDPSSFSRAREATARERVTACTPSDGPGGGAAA

[6] = biological target: cGMP-specific 3',5'-cyclic phosphodiesterase (Homo sapiens, UniProt O76074); test: DRUGMATRIX: Phosphodiesterase PDE5 enzyme inhibition (substrate: [3H]cGMP + cGMP); assay type: tissue-based; conditions: platelet; Not Active = under 50% inhibition at 10 µM
Progesterone receptor = biological target: T2, Progesterone receptor (Bos taurus, UniProt Q690N0); test: DRUGMATRIX: Progesterone radioligand binding (ligand: [3H] R-5020); assay type: tissue-based, Uterus; conditions: Not Active = under 50% inhibition at 10 µM
T2 sequence (Q690N0 whole entry): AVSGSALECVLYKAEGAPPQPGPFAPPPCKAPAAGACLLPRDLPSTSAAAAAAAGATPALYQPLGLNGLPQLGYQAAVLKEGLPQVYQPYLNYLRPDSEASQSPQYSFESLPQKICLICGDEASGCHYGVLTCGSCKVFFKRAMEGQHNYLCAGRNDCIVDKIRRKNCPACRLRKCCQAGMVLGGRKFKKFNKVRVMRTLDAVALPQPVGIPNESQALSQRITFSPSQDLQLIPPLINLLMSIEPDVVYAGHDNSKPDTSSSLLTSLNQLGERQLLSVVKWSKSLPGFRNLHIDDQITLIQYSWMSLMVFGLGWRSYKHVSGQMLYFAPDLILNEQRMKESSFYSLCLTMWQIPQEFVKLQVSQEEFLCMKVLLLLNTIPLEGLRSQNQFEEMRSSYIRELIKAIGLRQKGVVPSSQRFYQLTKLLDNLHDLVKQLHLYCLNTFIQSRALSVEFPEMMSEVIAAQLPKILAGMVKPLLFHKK

O=C1CC[C@H](N2C(=O)c3ccccc3C2=O)C(=O)N1
Not Active: IC50 [1] | Ki [1] | IC50 [2] | Ki [2] | IC50 [3] | IC50 [4] | Ki [4] | IC50 (Melanocortin receptor 3) | IC50 [5] | IC50 [6] | IC50 (Progesterone receptor)

ClC(Cl)Cl [CHLOROFORM]
Not Active: IC50 [1] | Ki [1] | IC50 [2] | Ki [2] | IC50 [3] | IC50 [4] | Ki [4] | IC50 (Melanocortin receptor 3) | IC50 [5] | IC50 [6] | IC50 (Progesterone receptor)

CCc1c2c(nc3ccc(OC(=O)N4CCC(N5CCCCC5)CC4)cc13)-c1cc3c(c(=O)n1C2)COC(=O)[C@]3(O)CC [IRINOTECAN]
Not Active: IC50 [1] | Ki [1] | IC50 [2] | Ki [2] | IC50 [3] | IC50 [4] | Ki [4] | IC50 (Melanocortin receptor 3) | IC50 [5] | IC50 [6] | IC50 (Progesterone receptor)

CCCN(CCC)C(=O)C(CCC(=O)O)NC(=O)c1ccccc1 (stereo unspecified) [PROGLUMIDE]
Not Active: IC50 [1] | Ki [1] | IC50 [2] | Ki [2] | IC50 [3] | IC50 [4] | Ki [4] | IC50 (Melanocortin receptor 3) | IC50 [5] | IC50 [6] | IC50 (Progesterone receptor)

CCCC(CCC)C(=O)O [VALPROIC ACID]
Not Active: IC50 [1] | Ki [1] | IC50 [2] | Ki [2] | IC50 [3] | IC50 [4] | Ki [4] | IC50 (Melanocortin receptor 3) | IC50 [5] | IC50 [6] | IC50 (Progesterone receptor)

Cc1ccccc1C(=O)N1CCC(Cc2ccccc2)CC1
Not Active: IC50 [1] | Ki [1] | IC50 [2] | Ki [2] | IC50 [3] | IC50 [4] | Ki [4] | IC50 (Melanocortin receptor 3) | IC50 [5] | IC50 [6] | IC50 (Progesterone receptor)

CCCC(=O)Nc1ccc(OCC(O)CNC(C)C)c(C(C)=O)c1 (stereo unspecified) [ACEBUTOLOL]
Not Active: IC50 [1] | Ki [1] | IC50 [2] | Ki [2] | IC50 [3] | IC50 [4] | Ki [4] | IC50 (Melanocortin receptor 3) | IC50 [5] | IC50 [6] | IC50 (Progesterone receptor)

OC(CCN1CCCCC1)(c1ccccc1)C1CCCCC1 (stereo unspecified) [TRIHEXYPHENIDYL]
Not Active: IC50 [1] | Ki [1] | IC50 [2] | Ki [2] | IC50 [3] | IC50 [4] | Ki [4] | IC50 (Melanocortin receptor 3) | IC50 [5] | IC50 [6] | IC50 (Progesterone receptor)

Cc1ccc(S(=O)(=O)NC(=O)NN2CC3CCCC3C2)cc1 (stereo unspecified) [GLICLAZIDE]
Not Active: IC50 [1] | Ki [1] | IC50 [2] | Ki [2] | IC50 [3] | IC50 [4] | Ki [4] | IC50 (Melanocortin receptor 3) | IC50 [5] | IC50 [6] | IC50 (Progesterone receptor)

N=C(N)NC(=O)c1nc(Cl)c(N)nc1N [AMILORIDE]
Not Active: IC50 [1] | Ki [1] | IC50 [2] | Ki [2] | IC50 [3] | IC50 [4] | Ki [4] | IC50 (Melanocortin receptor 3) | IC50 [5] | IC50 [6] | IC50 (Progesterone receptor)

CC(C)(Oc1ccc(C2CCCc3ccccc32)cc1)C(=O)O (stereo unspecified) [NAFENOPIN]
Not Active: IC50 [1] | Ki [1] | IC50 [2] | Ki [2] | IC50 [3] | IC50 [4] | Ki [4] | IC50 (Melanocortin receptor 3) | IC50 [5] | IC50 [6] | IC50 (Progesterone receptor)
